{"source": "patent US20100254948A1", "about": "“PROCESS FOR THE PREPARATION OF GAMMA-AMINO BUTYRIC ACID (GABA) BY THE USE OF LACTIC ACID BACTERIA (LAB) ON AGRO-AND FOOD-INDUSTRY SURPLUS” (Giuliani S.p.A, priority 2007, published 2010)", "format_in_all_cases": "cell-based, human", "key": {"involucrin (IVL)": {"tested_on": "involucrin (IVL)", "test": "Real time PCR of involucrin (IVL) in FT-skin model", "conditions": "8, 24, 48 and 72 hours, repeated application for 3 days", "from_the_text": "(§1) 2) The ‘full thickness skin model’ (FT) (Phenion GmbH & Co., Frankfurt am Main, Germany) is a multi-layer human skin model consisting of keratinocytes and fibroblasts stemming from the same donor. After a culture period of five weeks, the ‘full thickness’ was fully developed and comprised epidermis, basal membrane and derma. The model was characterized with respect to the expression of fundamental markers of differentiation at the epidermis level (cytokeratin 10, philagrin, transglutaminase and involucrin), at the derma-epidermis junctions (laminin and collagen IV) and at dermal level (elastin fibronectin). The diameter of the model FT is of 1.3 cm.\n(§2) In this study the following genes were employed:\n(§3) The technique employs Taqman probes for detecting the fluorescent signal and it is very sensitive, consisting in the amplification and quantification of a specific sequence of nucleic acids. The detection of the PCR product occurs in real time. The quantification of DNA, cDNA or RNA is carried out by determining the cycle in which he PCR product can be detected for the first time, thus not at the moment when the reaction has become saturated. The quantification of the product occurs through the detection of fluorescence measured in each cycle; the strength of the signal is directly proportional to the amount of the amplified product. […]\n(§4) Each biological sample is evaluated in triple tests. […]"}, "philagrin (FLG)": {"tested_on": "philagrin (FLG)", "test": "Real time PCR of philagrin (FLG) in FT-skin model", "from_the_text": "as §1, §2, §3, §4"}, "[1]": {"tested_on": "hyaluronate synthetase (HAS1)", "test": "Real time PCR of hyaluronate synthetase (HAS1) in FT-skin model", "from_the_text": "as §1, §2, §3, §4"}, "[2]": {"tested_on": "GCLC (glutamate-cysteinyl ligase)", "test": "Real time PCR of glutamate-cysteinyl ligase (GCLC) in FT-skin model", "conditions": "1% Biomass or GABA 1 mm dose, from 8 h", "from_the_text": "as §1, §2, §3, §4"}, "[3]": {"tested_on": "GSS (glutatione synthetase)", "test": "Real time PCR of glutatione synthetase (GSS) in FT-skin model", "conditions": "24 hours, expression values very low and meaningless", "from_the_text": "as §1, §2, §3, §4"}}, "note": "Entries after “also recorded” stand apart in the source; their conditions may differ.", "data": [{"smiles": "NCCCC(=O)O", "note": "[GABA, gamma-aminobutyric acid]", "values": [{"measurement": "involucrin gene modulation", "setting": "involucrin (IVL)", "value": "no significative modulation; also recorded: unmodulated"}, {"measurement": "philagrin gene over-expression", "setting": "philagrin (FLG); 24 hours", "value": "evident"}, {"measurement": "philagrin gene over-expression", "setting": "philagrin (FLG); 72 hours (repeated application for 3 days)", "value": "significative increase"}, {"measurement": "hyaluronate synthetase (HAS) expression with respect to control sample", "setting": "[1]; 24 hours, 1% Biomass or GABA 1 mm dose, high standard deviation", "value": "increased"}, {"measurement": "hyaluronate synthetase (HAS) expression", "setting": "[1]; 48 hours, GABA 1 mm dose", "value": "increased"}, {"measurement": "GCLC gene expression (RT-PCR)", "setting": "[2]", "value": "No gene modulation"}, {"measurement": "GSS gene modulation (RT-PCR)", "setting": "[3]", "value": "just as a tendency"}]}]}
